Reference: patent US10590383B2, “Methods for differentiating pluripotent cells” (FUJIFILM Cellular Dynamics, Inc., priority 2016, dated 2020)
“Also recorded” adds a separate entry of the source.

Legend:
[1] = system: dividing cells / post-mitotic mDA neurons; assay: In-process purification of mDA neurons with mitomycin C (neuron purity MAP2+/nestin-, day 37); format: cell-based, human; conditions: chemo drug selection, no selection gave 44%
Excerpt: In-Process Purification of mDA Neurons: Even with efficient mDA progenitor patterning, there is a population of cells that continues to proliferate even after the maturing mDA neurons leave the cell cycle (approximately day 25). […] Intermediate doses given for intermediate times could also be used to achieve a similar effect.

[2] = system: human induced pluripotent stem cell (iPS) cell lines; assay: mDA progenitor patterning on process day 17 (FoxA2 by flow cytometry, FoxA2/Lmx1 co-expression by ICC); format: cell-based; conditions: for percentage of mDA progenitors induced (FoxA2 / FoxA2+Lmx1 cells) / use in mono-SMAD inhibition methods to produce midbrain dopaminergic neurons from iPS cells: single SMAD inhibitor; for percentage of mDA progenitors induced (FoxA2 / FoxA2+Lmx1 cells): alternate patterning conditions, multiple iPSC lines, process day 17
Experimental: Midbrain neuronal differentiation of human induced pluripotent stem cell (iPS) cell lines expanded on VTN-TN in Essential 8 medium was performed with small molecule and growth factor induction using a variety of differentiation media compositions and schedules as detailed in Tables 1-5. Generally, the iPS cells were cultured in D1 DA Neuron Induction Medium on Day 1, D2 Neuron Induction Medium on Day 2, and D3-D4 DA Induction Medium on Day 3 and 4. On Day 5, the cells were dissociated with TrypLE for 15 minutes and collected in DA Quench Medium before transferring the cells to a spinner flask suspension culture to form aggregates in D5 DA Neuron Aggregate Formation Medium.
On Day 6, the aggregates were settled, about 66% of the medium was removed, and the aggregates were fed DA Neuron Induction Medium. On Days 7-16, the aggregates were fed daily with DA Neuron Aggregate Maintenance Medium, and the medium was changed on Day 11 through 16. On Day 17, aggregates were dissociated to a single-cell suspension with TrypLE and plated onto Matrigel in D17 DA Neuron Aggregate Plating Medium. On Days 18, 20, 22 the medium was replaced with DopaNeuron Maturation Medium. On Day 24, the cells were dissociated using Accutase and plated in DA Neuron Maturation Plating Medium. The next day, the medium was replaced with DopaNeuron Maturation Medium.
The iCell DopaNeurons process was optimized with most progenitor patterning factors added starting on day 1. This includes factors for neuralization (dual-SMADi), sonic hedgehog signaling (Shh, PMN), and Wnt signaling (CHIR). […] A large number of optimization experiments were carried out across several iPSC lines to define conditions for efficient mono-SMADi mDA progenitor patterning, varying the timing and dose of all patterning factors. […] In the alternate (ALT) method, the SHH/Purmophamine addition was moved from Day 1 to Day 2. The changes utilized in this improvement included: (i) staggering the addition of the Wnt agonist (CHIR) to day 2 or day 3, (ii) re-optimizing the CHIR concentration, as this is dependent on the time it is first added, and (iii) moving the window where PD03 is added, as the optimal window depends on when CHIR is added. The end result was a narrow set of conditions that led to highly-efficient mDA progenitor formation in multiple iPS cell lines. Approximately half of the iPSC lines tested were able to generate mDA progenitors using mono-SMADi conditions.
FoxA2/Lmx1 coexpression is the most accurate marker for mDA progenitor cells. The use of alternate patterning conditions allows for efficient mDA progenitor patterning in the context of mono-SMAD inhibition (“Mono/Alternate”), whereas the standard patterning conditions have poor mDA progenitor patterning in the context of mono-SMAD inhibition (“Mono/Standard”). Control differentiations using dual-SMADi and standard patterning conditions (“Dual/Standard”) are shown for comparison.
Once an alternate patterning condition was identified that allowed for successful differentiation using mono-SMAD inhibition (Condition 1, i.e., Table 4: Alternate, LDN at 200 nM), the method was refined using a matrix of conditions, including the concentration of CHIR, and the treatment windows for Shh signaling, Wnt signaling, and MEK inhibition. […] Tyrosine hydroxylase (TH) expression is low in immature mDA neurons.
Different inhibitors were tested for function in mono-SMADi methods, as follows. The iCell DopaNeurons process induces neuralization using LDN-193189, an inhibitor of BMP signaling (inhibits ALK 1/2/3/6, blocks SMAD 1/5/8), and SB-431542, an inhibitor of TGF-b signaling (inhibits ALK 4/5/7, blocks SMAD 2/3). Together, this is referred to as “dual SMAD inhibition”, or “dual SMADi.” To define optimal conditions for neuralization using only a single SMAD inhibitor in the mDA process, various analogs of LDN-193189 and SB-431542 were screened across multiple iPS cell lines using the alternate patterning conditions described above. […]

[3] = system: iPSC-derived mDA neurons; assay: Marker characterization at process completion, day 37 (MAP2/nestin, FoxA2, TH); format: cell-based, human; conditions: 2 μM LDN versus 200 nM, Condition 7, iPSC line K
Excerpt: On Day 31, the cells were dissociated with Accutase and re-plated onto poly-L-ornithine (PLO)/Laminin-coated flasks in DA Neuron Maturation Plating Medium. Next, on Days 32, 34, and 36, the cells were fed DopaNeuron Maturation Medium. On Day 37 or 38, the cells were again dissociated with Accutase and subjected to analysis or cryopreserved for later use.
Three iPSC lines (C, K, and H) are shown as examples of successful differentiations taken to process completion (day 37) (FIG. 5). The iPSC lines C, K, and H are iPSC lines (21526.101, 21534.101, and 21531.101, respectively). Data was obtained using the approach in Table 4 for Alternate LDN and Table 1 for Standard Dual control. Differentiation of the H line using dual-SMADi and the optimized standard patterning is shown for comparison. In each case, a high level of neuron purity was observed (>90% MAP2+/nestin−), and essentially all neurons co-express FoxA2. The inventors have observed that the vast majority of MAP2+/FoxA2+ cells at this stage also express Lmx1, and are therefore mDA neurons. The DA neuron phenotype was confirmed by the expression of tyrosine hydroxylase (TH) in the majority of neurons, a marker of more mature DA neurons. […]

[4] = biological target: TGF-β type 1 (ALK4/5/7) receptor signaling; conditions: read-out: IC50 for inhibition of TGF-β type 1 (ALK4/5/7) receptor signaling; cited from earlier work

CO[C@@]12[C@H](COC(N)=O)C3=C(C(=O)C(C)=C(N)C3=O)N1C[C@@H]1N[C@@H]12 [MMC, mitomycin C]
final neuron purity (MAP2+/nestin−) [1]: > 90%

Cc1cccc(-c2nn(C(=S)Nc3ccccc3)cc2-c2ccnc3ccccc23)n1 [A-83-01]
percentage of mDA progenitors induced (FoxA2 / FoxA2+Lmx1 cells) [2]: did not outperform LDN

c1ccc2c(-c3cnn4cc(-c5ccc(N6CCNCC6)cc5)cnc34)ccnc2c1 [LDN-193189]
percentage of floor plate-derived neurons (FoxA2+) on process day 37 [3]: higher percentage of floor plate-derived neurons (FoxA2+) | FoxA2 and Lmx1 expression levels in day 17 progenitors ([2]; 2 μM LDN versus 200 nM, Condition 7, iPSC line K, n=5 experiments): higher FoxA2 and Lmx1 expression levels | use in mono-SMAD inhibition methods to produce midbrain dopaminergic neurons from iPS cells [2]: successfully used | percentage of mDA progenitors induced (FoxA2 / FoxA2+Lmx1 cells) [2]: best overall at inducing the highest percentage of mDA progenitors; also recorded: most efficient at neutralizing mDA progenitors across multiple iPSC lines | IC50 [4]: > 500 nM

CC(C)Oc1ccc(-c2cnc3c(-c4ccnc5ccccc45)cnn3c2)cc1 [DMH-1]
use in mono-SMAD inhibition methods to produce midbrain dopaminergic neurons from iPS cells [2]: successfully used

c1ccc(-c2[nH]ncc2-c2ccnc3ccccc23)nc1 [LY364947]
percentage of mDA progenitors induced (FoxA2 / FoxA2+Lmx1 cells) [2]: did not outperform LDN
